In patent US9029553B2, “2-anilino nicotinyl linked 2-amino benzothiazole conjugates and process for the preparation thereof” (Council of Scientific & Industrial Research, priority 2011, dated 2015):

Columns and labels:
CAKI-1 = assay: NCI SRB GI50 screen; assay type: cell-based; details: Homo sapiens, Renal, 48 hrs exposure, read-out: Growth Inhibition GI50 CAKI-1
Experimental: (§1) 2-Anilino nicotinyl linked 2-amino benzothiazole conjugates of formula 9-12 were tested against fifty nine human cancer cell lines derived from nine cancer types (leukemia, non-small cell lung cancer, colon cancer, CNS cancer, melanoma, ovarian cancer, renal cancer, prostate cancer and breast cancer) as per NCI protocol. For each compound, dose response curves for individual cell lines were measured at a minimum of five concentrations at 10 fold dilutions. A protocol of 48 hrs continuous drug exposure was used, and a sulforhodamine B (SRB) protein assay was used to estimate cell viability or growth.

CCRF-CEM = assay: NCI SRB GI50 screen; assay type: cell-based; details: Homo sapiens, Leukemia, 48 hrs exposure, read-out: Growth Inhibition GI50 CCRF-CEM
Experimental: as §1

DU-145 = assay: NCI SRB GI50 screen; assay type: cell-based; details: Homo sapiens, Prostate, 48 hrs exposure, read-out: Growth Inhibition GI50 DU-145
Experimental: as §1

EKVX = assay: NCI SRB GI50 screen; assay type: cell-based; details: Homo sapiens, Non-small lung, 48 hrs exposure, read-out: Growth Inhibition GI50 EKVX
Experimental: as §1

HCT-116 = assay: NCI SRB GI50 screen; assay type: cell-based; details: Homo sapiens, Colon, 48 hrs exposure, read-out: Growth Inhibition GI50 HCT-116
Experimental: as §1

HL-60(TB) = assay: NCI SRB GI50 screen; assay type: cell-based; details: Homo sapiens, Leukemia, 48 hrs exposure, read-out: Growth Inhibition GI50 HL-60(TB)
Experimental: as §1

HOP-92 = assay: NCI SRB GI50 screen; assay type: cell-based; details: Homo sapiens, Non-small lung, 48 hrs exposure, read-out: Growth Inhibition GI50 HOP-92
Experimental: as §1

HS 578T = assay: NCI SRB GI50 screen; assay type: cell-based; details: Homo sapiens, Breast, 48 hrs exposure, read-out: Growth Inhibition GI50 HS 578T
Experimental: as §1

HT29 = assay: NCI SRB GI50 screen; assay type: cell-based; details: Homo sapiens, HT-29; Colon, 48 hrs exposure; read-out: Growth Inhibition GI50 HT29
Experimental: as §1

LOX IMVI = assay: NCI SRB GI50 screen; assay type: cell-based; details: Homo sapiens, Melanoma, 48 hrs exposure, read-out: Growth Inhibition GI50 LOX IMVI
Experimental: as §1

M14 = assay: NCI SRB GI50 screen; assay type: cell-based; details: Homo sapiens, Melanoma, 48 hrs exposure, read-out: Growth Inhibition GI50 M14
Experimental: as §1

MCF7 = assay: NCI SRB GI50 screen; assay type: cell-based; details: Homo sapiens, Breast, 48 hrs exposure, read-out: Growth Inhibition GI50 MCF7
Experimental: as §1

MDA-MB-231/ATCC = assay: NCI SRB GI50 screen; assay type: cell-based; details: Homo sapiens, Breast, 48 hrs exposure, read-out: Growth Inhibition GI50 MDA-MB-231/ATCC
Experimental: as §1

MOLT-4 = assay: NCI SRB GI50 screen; assay type: cell-based; details: Homo sapiens, Leukemia, 48 hrs exposure, read-out: Growth Inhibition GI50 MOLT-4
Experimental: as §1

NCI-H226 = assay: NCI SRB GI50 screen; assay type: cell-based; details: Homo sapiens, Non-small lung, 48 hrs exposure, read-out: Growth Inhibition GI50 NCI-H226
Experimental: as §1

NCI-H23 = assay: NCI SRB GI50 screen; assay type: cell-based; details: Homo sapiens, Non-small lung, 48 hrs exposure, read-out: Growth Inhibition GI50 NCI-H23
Experimental: as §1

NCI-H322M = assay: NCI SRB GI50 screen; assay type: cell-based; details: Homo sapiens, Non-small lung, 48 hrs exposure, read-out: Growth Inhibition GI50 NCI-H322M
Experimental: as §1

NCI-H460 = assay: NCI SRB GI50 screen; assay type: cell-based; details: Homo sapiens, Non-small lung, 48 hrs exposure, read-out: Growth Inhibition GI50 NCI-H460
Experimental: as §1

NCI-H522 = assay: NCI SRB GI50 screen; assay type: cell-based; details: Homo sapiens, Non-small lung, 48 hrs exposure, read-out: Growth Inhibition GI50 NCI-H522
Experimental: as §1

NCI/ADR-RES = assay: NCI SRB GI50 screen; assay type: cell-based; details: Homo sapiens, Ovarian, 48 hrs exposure, read-out: Growth Inhibition GI50 NCI/ADR-RES
Experimental: as §1

OVCAR-3 = assay: NCI SRB GI50 screen; assay type: cell-based; details: Homo sapiens, Ovarian, 48 hrs exposure, read-out: Growth Inhibition GI50 OVCAR-3
Experimental: as §1

PC-3 = assay: NCI SRB GI50 screen; assay type: cell-based; details: Homo sapiens, Prostate, 48 hrs exposure, read-out: Growth Inhibition GI50 PC-3
Experimental: as §1

SK-MEL-28 = assay: NCI SRB GI50 screen; assay type: cell-based; details: Homo sapiens, Melanoma, 48 hrs exposure, read-out: Growth Inhibition GI50 SK-MEL-28
Experimental: as §1

SN12C = assay: NCI SRB GI50 screen; assay type: cell-based; details: Homo sapiens, Renal, 48 hrs exposure, read-out: Growth Inhibition GI50 SN12C
Experimental: as §1

SNB-75 = assay: NCI SRB GI50 screen; assay type: cell-based; details: Homo sapiens, CNS, 48 hrs exposure, read-out: Growth Inhibition GI50 SNB-75
Experimental: as §1

Sw-620 = assay: NCI SRB GI50 screen; assay type: cell-based; details: Homo sapiens, Colon, 48 hrs exposure, read-out: Growth Inhibition GI50 SW-620
Experimental: as §1

T-47D = assay: NCI SRB GI50 screen; assay type: cell-based; details: Homo sapiens, T47D; Breast, 48 hrs exposure; read-out: Growth Inhibition GI50 T-47D
Experimental: as §1

UACC-257 = assay: NCI SRB GI50 screen; assay type: cell-based; details: Homo sapiens, Melanoma, 48 hrs exposure, read-out: Growth Inhibition GI50 UACC-257
Experimental: as §1

UACC-62 = assay: NCI SRB GI50 screen; assay type: cell-based; details: Homo sapiens, Melanoma, 48 hrs exposure, read-out: Growth Inhibition GI50 UACC-62
Experimental: as §1

UO-31 = assay: NCI SRB GI50 screen; assay type: cell-based; details: Homo sapiens, Renal, 48 hrs exposure, read-out: Growth Inhibition GI50 UO-31
Experimental: as §1

O=C(Nc1nc2ccc(F)cc2s1)c1cccnc1Nc1ccc(Cl)cc1Cl [Compound 10, N3-(6-fluoro-1,3-benzothiazol-2-yl)-2-(2,4-dichloroanilino)nicotinamide]
GI50 (CAKI-1): 1.5 µM | GI50 (CCRF-CEM): 1850 nM | GI50 (DU-145): 3.53 µM | GI50 (EKVX): 2070 nM | GI50 (HCT-116): 2190 nM | GI50 (HL-60(TB)): 1830 nM | GI50 (HOP-92): 1480 nM | GI50 (HS 578T): 3250 nM | GI50 (HT29): 2.98 µM | GI50 (LOX IMVI): 4.19 µM | GI50 (M14): 3.37 µM | GI50 (MCF7): 3070 nM | GI50 (MDA-MB-231/ATCC): 3.41 µM | GI50 (MOLT-4): 2270 nM | GI50 (NCI-H226): 2700 nM | GI50 (NCI-H23): 2340 nM | GI50 (NCI-H322M): 3.24 µM | GI50 (NCI-H460): 2560 nM | GI50 (NCI-H522): 1480 nM | GI50 (NCI/ADR-RES): 2510 nM | GI50 (OVCAR-3): 2440 nM | GI50 (PC-3): 2110 nM | GI50 (SK-MEL-28): 4.09 µM | GI50 (SN12C): 2.32 µM | GI50 (SNB-75): 2550 nM | GI50 (Sw-620): 3.4 µM | GI50 (T-47D): 1930 nM | GI50 (UACC-257): 170 nM | GI50 (UACC-62): 2120 nM | GI50 (UO-31): 1100 nM | melting point: 208 to 210 °C

COc1ccc2nc(NC(=O)c3cccnc3Nc3cc(OC)c(OC)c(OC)c3)sc2c1 [Compound 12, N-3-(6-methoxy-1,3-benzothiazol-2-yl)-2-(3,4,5-trimethoxyanilino) nicotinamide]
GI50 (CAKI-1): 16.4 µM | GI50 (CCRF-CEM): 20100 nM | GI50 (DU-145): 14.6 µM | GI50 (EKVX): 11500 nM | GI50 (HCT-116): 4500 nM | GI50 (HL-60(TB)): 32300 nM | GI50 (HOP-92): 2240 nM | GI50 (HS 578T): 5770 nM | GI50 (HT29): 17.7 µM | GI50 (LOX IMVI): 15.7 µM | GI50 (M14): 10.5 µM | GI50 (MCF7): 510 nM | GI50 (MDA-MB-231/ATCC): 5.62 µM | GI50 (MOLT-4): 24200 nM | GI50 (NCI-H226): 10700 nM | GI50 (NCI-H23): 5380 nM | GI50 (NCI-H322M): 17.3 µM | GI50 (NCI-H460): 7420 nM | GI50 (NCI-H522): 2600 nM | GI50 (NCI/ADR-RES): 8970 nM | GI50 (OVCAR-3): 8920 nM | GI50 (PC-3): 6670 nM | GI50 (SK-MEL-28): 7.88 µM | GI50 (SN12C): 11.7 µM | GI50 (SNB-75): 2890 nM | GI50 (Sw-620): 11.8 µM | GI50 (T-47D): 5060 nM | GI50 (UACC-257): 8450 nM | GI50 (UACC-62): 8450 nM | GI50 (UO-31): 9300 nM | melting point: 121 to 125 °C (dec.)

O=C(Nc1nc2ccc(F)cc2s1)c1cccnc1Nc1ccc(Cl)cc1 [Compound 9, N3-(6-fluoro-1,3-benzothiazol-2-yl)-2-(4-chloroanilino)nicotinamide]
GI50 (CAKI-1): 2.89 µM | GI50 (CCRF-CEM): 1060 nM | GI50 (DU-145): 3.67 µM | GI50 (EKVX): 1940 nM | GI50 (HCT-116): 1670 nM | GI50 (HL-60(TB)): 1740 nM | GI50 (HOP-92): 1690 nM | GI50 (HS 578T): 1990 nM | GI50 (HT29): 2.86 µM | GI50 (LOX IMVI): 2.62 µM | GI50 (M14): 2.64 µM | GI50 (MCF7): 2380 nM | GI50 (MDA-MB-231/ATCC): 1.85 µM | GI50 (MOLT-4): 2220 nM | GI50 (NCI-H226): 2320 nM | GI50 (NCI-H23): 1670 nM | GI50 (NCI-H322M): 3.25 µM | GI50 (NCI-H460): 1970 nM | GI50 (NCI-H522): 1020 nM | GI50 (NCI/ADR-RES): 2090 nM | GI50 (OVCAR-3): 2170 nM | GI50 (PC-3): 2130 nM | GI50 (SK-MEL-28): 3.51 µM | GI50 (SN12C): 2.3 µM | GI50 (SNB-75): 2950 nM | GI50 (Sw-620): 1.02 µM | GI50 (T-47D): 730 nM | GI50 (UACC-257): 164 nM | GI50 (UACC-62): 1940 nM | GI50 (UO-31): 1940 nM | melting point: 254 to 257 °C

COc1cc(Nc2ncccc2C(=O)Nc2nc3ccc(F)cc3s2)cc(OC)c1OC [Compound 11, N3-(6-fluoro-1,3-benzothiazol-2-yl)-2-(3,4,5-trimethoxyanilino)nicotinamide]
GI50 (CAKI-1): 3.15 µM | GI50 (CCRF-CEM): 3260 nM | GI50 (DU-145): 5.5 µM | GI50 (EKVX): 2700 nM | GI50 (HCT-116): 3490 nM | GI50 (HL-60(TB)): 1860 nM | GI50 (HOP-92): 1480 nM | GI50 (HS 578T): 2570 nM | GI50 (HT29): 5.15 µM | GI50 (LOX IMVI): 3.87 µM | GI50 (M14): 3.08 µM | GI50 (MCF7): 3230 nM | GI50 (MDA-MB-231/ATCC): 4.61 µM | GI50 (MOLT-4): 2110 nM | GI50 (NCI-H226): 2950 nM | GI50 (NCI-H23): 2270 nM | GI50 (NCI-H322M): 3.71 µM | GI50 (NCI-H460): 3300 nM | GI50 (NCI-H522): 1550 nM | GI50 (NCI/ADR-RES): 2920 nM | GI50 (OVCAR-3): 2770 nM | GI50 (PC-3): 2730 nM | GI50 (SK-MEL-28): 4.33 µM | GI50 (SN12C): 4.73 µM | GI50 (SNB-75): 4480 nM | GI50 (T-47D): 2300 nM | GI50 (UACC-62): 1710 nM | GI50 (UO-31): 3370 nM | melting point: 214 to 216 °C
